The test system of data set [1] is non-atherosclerotic (NA) and atherosclerotic (A) rabbits. Kind of data set: Electrocardiogram monitoring during incremental infusion rates. The settings on record: A and NA animals, NE finding at the highest rate tested (1 μg.kg^−1.min^−1). In kind it is in vivo, New Zealand White rabbits. The method, then:
(§1) Following overnight fasting, the rabbits were pre-anesthetized intramuscularly using a mixture of 15 mg/kg ketamine hydrochloride (Imalgène 500®, Rhône Mérieux, Lyon, France) and 0.7 mg/kg xylazine hydrochloride (Rompun® 2%, KVP, Kiel, Germany). The animals were tracheotomized and maintained under isoflurane anesthesia (2% v/v isoflurane in oxygen [isoflurane: AErrane®, Baxter, Maurepas, France]). The electrocardiogram was monitored continuously (Lead II derivation) during surgery. A femoral vein was cannulated using a polyvinyl chloride catheter to administer selepressin, AVP, NE, or vehicle while a carotid artery was cannulated for blood sampling. A Millar catheter-tip transducer was introduced into the femoral artery to determine arterial pressure. The animals were infused intravenously using Ringer lactate (Lavoisier, Paris, France) at 2 mL/h.
AP and electrocardiogram signals were amplified (Hugo Sachs Elektronik, March-Hugstetten, Germany) and recorded continuously using a computerized data acquisition system (Notocord, Croissy-sur-Seine, France) with acquisition rates of 500 and 1000 Hz for arterial pressure and electrocardiogram, respectively.

Data set [2] shares this test system. In words: Hemodynamic dose-response to cumulative intravenous infusion rates in anesthetized rabbits. The data set is classed as in vivo, New Zealand White rabbits. The settings on record: incremental i.v. infusion rates, nonlinear regression, mean ± standard error of the mean. The method, then: Thirty male New Zealand White rabbits (2.6–3.6 kg, Centre d’élevage G. Achard de la Vente, St Mars d'Egrenne, France), aged 3–4 months were individually housed in stainless steel mesh cages (500 × 600 × 400 mm) at 19–25°C and ≥35% humidity with a 12-h light/dark cycle. Each animal received Bolapin (Huttepain Bouix, Le Mans, France) at approximately 60 g/day as standard diet (non-atherosclerotic animals) or supplemented with1% cholesterol for 6 weeks to induce atherosclerosis (both n = 15). The animals were fasted for at least 12 h before clinical laboratory blood sampling, on the day of the experiment, and before scheduled necropsy. Water was supplied ad libitum. On completion of cholesterol feeding, the animals were prepared surgically to determine cardiovascular variables and infused intravenously with selepressin, arginine vasopressin (AVP), or norepinephrine (NE) at incremental rates.
as §1
A left parasternal image window was used to obtain a long-axis view, visualizing the entire ascending aorta, the innominate artery branch, and the left common carotid arteries in the same plane. Prior to dosing, all of the animals (atherosclerotic [A] and non-atherosclerotic [NA]) were examined by 2-dimensional ultrasonography using a 15-MHz linear probe. The thoracic aorta was visualized at up to 30 frames/s using a 120-μm axial resolution. An adequate penetration depth was set to several centimeters beyond the far wall of the ascending aorta. Intima-media thickness (IMT) immediately proximal to the innominate artery branch site was determined in a consistent manner in each animal using the arterial branching points as anatomic landmarks.
Doppler ultrasonographic measurements were performed using Acuson Séquoia 526 color Doppler equipment (Siemens, Saint-Denis, France). Aortic flow measurements were performed from a trans-hepatic view for perfect alignment (cos(theta) of the Doppler equation ≈1). Time velocity integrals and aortic diameter were determined for each time point by aortic echography.
Aortic blood flow (ABF, mL/min) was calculated according to the following formula: ABF (mL/min) = SV (mL/beat)×HR (beats/min) where:
• HR: heart rate • SV (stroke volume, mL) = ITVAo (cm) × SAo (cm^2) • ITVAo: Integral time velocity of the aorta evaluated from the mean of three to five consecutive velocity waveforms (i.e., three to five heartbeats) • SAo (Section of the aorta) = (π × DAo^2)/4 • DAo: Aortic diameter (cm) determined by aortic echography close to the maximal velocity measurement site.
Before treatment, the animals (n = 5 for each drug and for A vs. NA) were infused with the corresponding vehicle (10 mM acetate buffer at 9% v/v in 0.9% NaCl for selepressin, 10 mM acetate buffer at 0.3% v/v in 0.9% NaCl for AVP, and in 0.9% NaCl for NE) at 1 mL.kg^−1.h^−1 for 15 min. Selepressin acetate, AVP, and NE were administered via the femoral vein. […]

Data set [3] is described as follows: Plasma bioanalysis at the time of maximum hemodynamic effect. The settings on record: New Zealand White, rabbit, in vivo, iv; atherosclerotic (A) rabbits; incremental i.v. infusion; LC-MS/MS for selepressin and AVP, LC with colorimetric detection for NE; mean ± standard deviation, n = 5; SD; read-out: maximum plasma concentration. The method, then:
Blood for bioanalysis was sampled from all of the animals both before the first infusion (vehicle control) and for each infusion rate at the time of maximum hemodynamic effect. Quantification of selepressin, AVP, or NE in plasma samples was performed using validated liquid chromatography with tandem mass spectrometric detection for selepressin and AVP and validated liquid chromatography with colorimetric detection for NE. All of the animals treated with selepressin, AVP, or NE were exposed in a dose-dependent manner, with no difference between A and NA animals. The maximum selepressin plasma concentrations (mean ± standard deviation) were 329±52 and 367±48 ng/mL for A and NA animals, respectively, for AVP they were 122±27 and 100±46.2 ng/mL for A and NA, respectively, and for NE they were 301±126 and 345±164 ng/mL for A and NA, respectively.

For data set [4], the system named is non-atherosclerotic (NA) and atherosclerotic (A) rabbits. Kind of data set: Serum biomarkers of cardiac injury (ASAT, CK, cardiac troponin I). In kind it is in vivo, New Zealand White rabbits. The settings on record: at the end of administration of the highest infusion rate, n = 5.
In data set [5] the test system is healthy dogs. The settings on record: cited from earlier work.
For data set [6] the following is noted: healthy rats; ref unpublished results; cited from earlier work.
For data set [7] the following is noted: healthy dogs; ref unpublished results; cited from earlier work.
Where [8] appears, read: atherosclerotic (A) rabbits, SEM.
[9] abbreviates: non-atherosclerotic (NA) rabbits.
Setting [10] is: non-atherosclerotic (NA) rabbits, SEM.

Consider three compounds from article PMC5082805 (PLoS ONE, 2016).

Where two headings read alike, the source gives them in different places. Where a SMILES comes first, the peptide text is derived from it. Bridges are numbered along the chain shown (N, C = ends). [ ]: non-standard residue; d: D form. Orn(iPr) = CC(C)NCCC[C@H](N)C(=O)O; Aad = N[C@@H](CCCC(=O)O)C(=O)O

Consider `NC(=O)CC[C@@H]1NC(=O)[C@H](Cc2ccccc2)NC(=O)[C@H](Cc2ccc(O)cc2)NC(=O)[C@@H](N)CSSC[C@@H](C(=O)N2CCC[C@H]2C(=O)N[C@@H](CCCN=C(N)N)C(=O)NCC(N)=O)NC(=O)[C@H](CC(N)=O)NC1=O` [AVP, arginine vasopressin], for which the “electrocardiogram abnormalities (including ST segment elevation)” value (shortened to “electrocardiogram abnormalities”) in data set [1] is listed as “No electrocardiogram abnormalities”. For the same compound, in data set [2] (setting [8]), the “Log ED50, aortic blood flow (ABF)” value is recorded as −8.4±0.2 log(ng.kg^-1.min^-1); the “Log ED50, diastolic arterial pressure (DAP)” value (shortened to “Log ED50 … (DAP)”) is listed as −8.7±1.1 log(ng.kg^-1.min^-1); the “Log ED50, heart rate (HR)” value was −8.5±0.5 log(ng.kg^-1.min^-1); the “Log ED50, mean arterial pressure (MAP)” value is listed as −8.6±1.4 log(ng.kg^-1.min^-1). Also, in data set [2] (setting [8]), the “Log ED50, stroke volume (SV)” value is listed as −7.9±5.1 log(ng.kg^-1.min^-1) and the “Log ED50, systolic arterial pressure (SAP)” value (“Log ED50 … (SAP)” below) is given as −8.6±3.2 log(ng.kg^-1.min^-1). Besides, the “Log ED50, mean arterial pressure (MAP)” value in data set [2] (setting [9]) was “No fit”. Further, in data set [2] (setting [10]), the “Log ED50, aortic blood flow (ABF)” value is given as −8.1±0.5 log(ng.kg^-1.min^-1); the “Log ED50 … (DAP)” value is on record as −10.0±7.5 log(ng.kg^-1.min^-1); the “Log ED50, heart rate (HR)” value is −8.6±0.2 log(ng.kg^-1.min^-1); the “Log ED50, stroke volume (SV)” value is given as −7.5±5.9 log(ng.kg^-1.min^-1). Also, the “Log ED50 … (SAP)” value in data set [2] (setting [10]) is −6.6±1.9 log(ng.kg^-1.min^-1). For the same compound, in data set [3], the Cmax came out at 122 ± 27 ng/mL. The “serum aspartate aminotransferase activity vs baseline” value in data set [4] (atherosclerotic (A) rabbits) is “not significantly different from baseline”. Also, the “serum aspartate aminotransferase activity vs baseline” value in data set [4] (setting [9]) is reported as “not significantly different from baseline”.
Turning to `NC[C@H](O)c1ccc(O)c(O)c1` [NE, norepinephrine], the “electrocardiogram abnormalities” value in data set [1] is “Some premature ventricular beats”. Besides, in data set [2] (setting [8]), the “Log ED50, aortic blood flow (ABF)” value is on record as −6.2±0.7 log(ng.kg^-1.min^-1); the “Log ED50 … (DAP)” value is recorded as −5.8±0.4 log(ng.kg^-1.min^-1); the “Log ED50, heart rate (HR)” value is reported as −7.0 ±1.2 log(ng.kg^-1.min^-1); the “Log ED50, mean arterial pressure (MAP)” value is on record as −5.7±0.3 log(ng.kg^-1.min^-1). In addition, the “Log ED50, stroke volume (SV)” value in data set [2] (setting [8]) is reported as −5.4±0.4 log(ng.kg^-1.min^-1). Moreover, in data set [2] (setting [10]), the “Log ED50, aortic blood flow (ABF)” value was −6.5±0.4 log(ng.kg^-1.min^-1); the “Log ED50 … (DAP)” value is recorded as −6.0±0.3 log(ng.kg^-1.min^-1); the “Log ED50, heart rate (HR)” value is listed as −6.9±0.9 log(ng.kg^-1.min^-1); the “Log ED50, mean arterial pressure (MAP)” value was −6.1±0.3 log(ng.kg^-1.min^-1). Further, in data set [2] (setting [10]), the “Log ED50, stroke volume (SV)” value was −6.5±0.4 log(ng.kg^-1.min^-1) and the “Log ED50 … (SAP)” value was −6.1±0.2 log(ng.kg^-1.min^-1).
In the case of `CC[C@H](C)[C@@H]1NC(=O)[C@H](Cc2ccccc2)NC(=O)[C@@H](N)CSSC[C@@H](C(=O)N2CCC[C@H]2C(=O)N[C@@H](CCCNC(C)C)C(=O)NCC(N)=O)NC(=O)[C@H](CC(N)=O)NC(=O)[C@H](CCCC(N)=O)NC1=O` [Selepressin, selepressin] (H-CFI[Aad](NH2)NCP[Orn(iPr)]G-NH2; disulfide 1-6), the coronary ischemic liability result in data set [5] is “no relevant coronary ischemic liability”. Also, the “electrocardiogram abnormalities” value in data set [1] was “No electrocardiogram abnormalities”. The half-life result in data set [6] is given as “approximately 20 min”; in data set [7], approximately 30 min. For the same compound, the Cmax in data set [3] was 329 ± 52 ng/mL. In addition, the “serum aspartate aminotransferase activity vs baseline” value in data set [4] (atherosclerotic (A) rabbits) and in data set [4] (setting [9]) was “not significantly different from baseline” each time.

Broadly, the half-life is the time in which the quantity being followed falls by half.
